Results as given in PubChem BioAssay (NCI).
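A five-concentration, 48-hour dose response in 96-well plates underlies each endpoint, interpolated linearly between surrounding concentrations. GI50 marks 50% less growth. Definition used: TGI = concentration required for complete inhibition of growth.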

Assays:
Experiment in all cases: NCI-60 cell line screen, 48 h
[1] = test system: HS 578T breast
[2] = test system: HCT-116 colon
[3] = test system: HL-60(TB) leukemia
[4] = test system: U251 CNS
[5] = test system: OVCAR-8 ovarian
[6] = test system: MDA-MB-231 breast
[7] = test system: T-47D breast
[8] = test system: KM12 colon
[9] = test system: PC-3 prostate
[10] = test system: DU-145 prostate
[11] = test system: SF-268 CNS
[12] = test system: RPMI-8226 leukemia
[13] = test system: HT29 colon
[14] = test system: NCI-H522 lung
[15] = test system: UO-31 renal
[16] = test system: HCC-2998 colon
[17] = test system: SNB-19 CNS
[18] = test system: BT-549 breast
[19] = test system: MCF7 breast
[20] = test system: MDA-MB-435
[21] = test system: SF-295 CNS
[22] = test system: A498 renal
[23] = test system: M14 melanoma
[24] = test system: HOP-62 NSCLC
[25] = test system: SNB-75 CNS
[26] = test system: NCI-H460 lung
[27] = test system: NCI-H226 lung
[28] = test system: COLO 205 colon
[29] = test system: CAKI-1 renal
[30] = test system: A549 NSCLC
[31] = test system: UACC-62 melanoma
[32] = test system: ACHN renal
[33] = test system: SN12C renal
[34] = test system: SR leukemia
[35] = test system: MALME-3M melanoma
[36] = test system: CCRF-CEM leukemia
[37] = test system: K-562 leukemia
[38] = test system: OVCAR-3 ovarian
[39] = test system: IGROV1 ovarian
[40] = test system: TK-10 renal
[41] = test system: SK-MEL-28 melanoma
[42] = test system: LOX IMVI melanoma
[43] = test system: SK-OV-3 ovarian
[44] = test system: OVCAR-4 ovarian
[45] = test system: EKVX NSCLC
[46] = test system: NCI-H23 lung
[47] = test system: MDA-N
[48] = test system: OVCAR-5 ovarian
[49] = test system: SF-539 CNS
[50] = test system: 786-0 renal
[51] = test system: SW-620 colon
[52] = test system: RXF 393 renal
[53] = test system: HCT-15 colon
[54] = test system: SK-MEL-2 melanoma
[55] = test system: HOP-92 NSCLC
[56] = test system: NCI/ADR-RES ovarian
[57] = test system: UACC-257 melanoma
[58] = test system: MOLT-4 leukemia
[59] = test system: SK-MEL-5 melanoma

## CC(C)(C)C(=O)CC(=O)C(F)(F)C(F)(F)C(F)(F)F.CC(C)(C)C(=O)CC(=O)C(F)(F)C(F)(F)C(F)(F)F.CC(C)(C)C(=O)CC(=O)C(F)(F)C(F)(F)C(F)(F)F.[Er]
[1]
  TGI: > 100 µM
[2]
  TGI: > 100 µM
[3]
  TGI: > 100 µM
[4]
  TGI: > 100 µM
[5]
  TGI: > 100 µM
[6]
  TGI: > 100 µM
[7]
  TGI: > 100 µM
[8]
  TGI: > 100 µM
[9]
  TGI: > 100 µM
[10]
  TGI: > 100 µM
[11]
  TGI: > 100 µM
[12]
  TGI: > 100 µM
[13]
  TGI: > 100 µM
[14]
  GI50: 94 µM
  TGI: > 100 µM
[15]
  TGI: > 100 µM
[16]
  GI50: 43.5 µM
  TGI: > 100 µM
[17]
  TGI: > 100 µM
[18]
  GI50: > 100 µM
  TGI: > 100 µM
[19]
  GI50: > 100 µM
  TGI: > 100 µM
[20]
  TGI: > 100 µM
[21]
  TGI: > 100 µM
[22]
  GI50: > 100 µM
  TGI: > 100 µM
[23]
  TGI: > 100 µM
[24]
  TGI: > 100 µM
[25]
  TGI: > 100 µM
[26]
  TGI: > 100 µM
[27]
  TGI: > 100 µM
[28]
  TGI: > 100 µM
[29]
  TGI: > 100 µM
[30]
  TGI: > 100 µM
[31]
  TGI: > 100 µM
[32]
  TGI: > 100 µM
[33]
  TGI: > 100 µM
[34]
  TGI: > 100 µM
[35]
  TGI: > 100 µM
[36]
  TGI: > 100 µM
[37]
  TGI: > 100 µM
[38]
  TGI: > 100 µM
[39]
  TGI: > 100 µM
[40]
  TGI: > 100 µM
[41]
  TGI: > 100 µM
[42]
  TGI: > 100 µM
[43]
  TGI: > 100 µM
[44]
  TGI: > 100 µM
[45]
  TGI: 96.8 µM
[46]
  TGI: > 100 µM
[47]
  TGI: > 100 µM
[48]
  TGI: > 100 µM
[49]
  TGI: > 100 µM
[50]
  TGI: > 100 µM
[51]
  TGI: > 100 µM

## CN1C(=O)CN=C(c2ccccc2F)c2cc(N=C=S)ccc21
[1]
  TGI: > 100 µM
[2]
  TGI: > 100 µM
[3]
  TGI: > 100 µM
[4]
  TGI: > 100 µM
[5]
  TGI: > 100 µM
[6]
  TGI: > 100 µM
[52]
  TGI: 87.7 µM
[7]
  TGI: > 100 µM
[8]
  TGI: > 100 µM
[9]
  TGI: > 100 µM
[10]
  TGI: > 100 µM
[11]
  TGI: > 100 µM
[13]
  TGI: > 100 µM
[14]
  TGI: 45.2 µM
[15]
  TGI: > 100 µM
[16]
  TGI: > 100 µM
[17]
  TGI: > 100 µM
[18]
  TGI: > 100 µM
[19]
  TGI: > 100 µM
[20]
  TGI: > 100 µM
[53]
  TGI: > 100 µM
[21]
  TGI: > 100 µM
[22]
  TGI: > 100 µM
[23]
  TGI: > 100 µM
[24]
  TGI: > 100 µM
[25]
  TGI: > 100 µM
[26]
  TGI: > 100 µM
[29]
  TGI: 25.2 µM
[30]
  TGI: > 100 µM
[31]
  TGI: > 100 µM
[32]
  TGI: > 100 µM
[33]
  TGI: > 100 µM
[35]
  TGI: > 100 µM
[36]
  TGI: > 100 µM
[38]
  TGI: > 100 µM
[54]
  TGI: > 100 µM
[55]
  TGI: > 100 µM
[39]
  TGI: > 100 µM
[40]
  TGI: > 100 µM
[42]
  TGI: > 100 µM
[43]
  TGI: > 100 µM
[44]
  TGI: > 100 µM
[45]
  TGI: > 100 µM
[46]
  TGI: > 100 µM
[56]
  TGI: > 100 µM
[57]
  TGI: > 100 µM
[47]
  TGI: > 100 µM
[48]
  TGI: > 100 µM
[50]
  TGI: > 100 µM
[51]
  TGI: > 100 µM

## O=NNc1ccc(Sc2ccc3ccccc3c2)cn1
[58]
  TGI: > 100 µM
[1]
  TGI: > 100 µM
[2]
  TGI: 40.6 µM
[3]
  TGI: 24.9 µM
[4]
  TGI: > 100 µM
[5]
  TGI: > 100 µM
[6]
  TGI: > 100 µM
[52]
  TGI: 4.12 µM
[7]
  TGI: 77.9 µM
[8]
  TGI: > 100 µM
[9]
  TGI: > 100 µM
[10]
  TGI: 79.7 µM
[11]
  TGI: > 100 µM
[13]
  TGI: > 100 µM
[14]
  TGI: 54 µM
[15]
  TGI: > 100 µM
[16]
  TGI: 31.2 µM
[17]
  TGI: > 100 µM
[18]
  TGI: 77.1 µM
[19]
  TGI: > 100 µM
[53]
  TGI: 60 µM
[21]
  TGI: > 100 µM
[22]
  TGI: > 100 µM
[23]
  TGI: 60.2 µM
[24]
  TGI: 50.2 µM
[25]
  TGI: > 100 µM
[26]
  TGI: > 100 µM
[27]
  TGI: > 100 µM
[28]
  TGI: > 100 µM
[29]
  TGI: > 100 µM
[30]
  TGI: > 100 µM
[31]
  TGI: > 100 µM
[32]
  TGI: > 100 µM
[33]
  TGI: > 100 µM
[34]
  TGI: > 100 µM
[35]
  TGI: 35.6 µM
[36]
  TGI: 59.6 µM
[37]
  TGI: > 100 µM
[38]
  TGI: > 100 µM
[54]
  TGI: 43.4 µM
[39]
  TGI: > 100 µM
[40]
  TGI: > 100 µM
[41]
  TGI: > 100 µM
[43]
  TGI: > 100 µM
[44]
  TGI: > 100 µM
[45]
  TGI: > 100 µM
[46]
  TGI: > 100 µM
[56]
  TGI: 89.4 µM
[57]
  TGI: > 100 µM
[47]
  TGI: > 100 µM
[59]
  TGI: 39.1 µM
[48]
  TGI: > 100 µM
[49]
  TGI: > 100 µM
[50]
  TGI: > 100 µM
[51]
  TGI: > 100 µM
